One block for each compound: values may come before it.
How the values were obtained:
Format in all cases: biochemical
[1] = target: T1, Thermus lactate dehydrogenase (LDH) (Thermus thermophilus, UniProt Q5SJA1); assay: spectrophotometric NADH oxidation at […] nm; settings: 0.2 mM pyruvate, 0.2 mM NADH, pH 7.0, 50 °C; inhibitor
T1 construct: heat-treated (70 °C, 30 min) lysate of recombinant E. coli; native form, untagged

[2] = target: T2, malate/lactate dehydrogenase (MLDH) (Thermus thermophilus, UniProt Q53W84); assay: NADH oxidation at […] nm; settings: 0.2 mM pyruvate, 0.2 mM NADH, 5 mM MgCl2, 0.5 mM MnCl2, pH 7.0, 50 °C
T2 construct: gene TTHB078; heat-treated lysate of recombinant E. coli; native form, untagged; Riken HB8 expression plasmid

[3] = target: T3, PFK (6-phosphofructokinase) (Thermus thermophilus, UniProt P21777); assay: coupled assay, NAD+ reduction at […] nm; settings: 0.1 mM substrate, 0.2 mM ATP, 5 mM MgCl2, 0.5 mM MnCl2, pH 7.0, 50 °C
T3 construct: gene pfkA; heat-treated lysate of recombinant E. coli; native form, untagged; Riken HB8 expression plasmid

[4] = target: T4, FBA (fructose-bisphosphate aldolase) (Thermus thermophilus, UniProt Q5SHF7); assay: coupled assay, NAD+ reduction at […] nm; settings: 0.1 mM substrate, 5 mM MgCl2, 0.5 mM MnCl2, pH 7.0, 50 °C
T4 construct: gene TTHA1773; heat-treated lysate of recombinant E. coli; native form, untagged; Riken HB8 expression plasmid
T4 sequence (Q5SHF7 1-305): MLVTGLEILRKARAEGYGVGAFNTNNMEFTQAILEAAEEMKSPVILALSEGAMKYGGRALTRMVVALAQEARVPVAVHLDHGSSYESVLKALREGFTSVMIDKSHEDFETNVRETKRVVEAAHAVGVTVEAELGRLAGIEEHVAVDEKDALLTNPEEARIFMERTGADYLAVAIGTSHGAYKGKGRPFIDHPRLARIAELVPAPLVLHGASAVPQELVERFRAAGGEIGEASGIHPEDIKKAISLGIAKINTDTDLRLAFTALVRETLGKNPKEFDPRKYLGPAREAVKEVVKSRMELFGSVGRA

T3 sequence (P21777 whole entry): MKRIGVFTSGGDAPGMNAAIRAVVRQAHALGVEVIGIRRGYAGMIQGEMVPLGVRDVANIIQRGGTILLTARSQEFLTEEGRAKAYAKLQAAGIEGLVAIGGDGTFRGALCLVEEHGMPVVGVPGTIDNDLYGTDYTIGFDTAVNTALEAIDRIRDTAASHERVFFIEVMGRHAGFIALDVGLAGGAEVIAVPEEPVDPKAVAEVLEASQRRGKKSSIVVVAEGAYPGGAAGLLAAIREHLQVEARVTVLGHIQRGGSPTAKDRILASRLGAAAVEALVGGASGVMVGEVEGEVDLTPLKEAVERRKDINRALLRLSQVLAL
T2 sequence (Q53W84 entry or part of it): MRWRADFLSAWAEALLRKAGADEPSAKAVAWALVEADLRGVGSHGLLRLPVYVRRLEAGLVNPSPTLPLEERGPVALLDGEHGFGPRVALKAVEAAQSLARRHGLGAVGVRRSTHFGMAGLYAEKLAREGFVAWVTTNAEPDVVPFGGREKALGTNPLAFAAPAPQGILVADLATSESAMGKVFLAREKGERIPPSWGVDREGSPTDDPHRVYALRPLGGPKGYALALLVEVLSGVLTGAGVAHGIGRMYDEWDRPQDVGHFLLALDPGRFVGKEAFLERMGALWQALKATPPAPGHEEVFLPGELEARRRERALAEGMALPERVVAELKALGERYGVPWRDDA
T1 sequence (Q5SJA1 whole entry): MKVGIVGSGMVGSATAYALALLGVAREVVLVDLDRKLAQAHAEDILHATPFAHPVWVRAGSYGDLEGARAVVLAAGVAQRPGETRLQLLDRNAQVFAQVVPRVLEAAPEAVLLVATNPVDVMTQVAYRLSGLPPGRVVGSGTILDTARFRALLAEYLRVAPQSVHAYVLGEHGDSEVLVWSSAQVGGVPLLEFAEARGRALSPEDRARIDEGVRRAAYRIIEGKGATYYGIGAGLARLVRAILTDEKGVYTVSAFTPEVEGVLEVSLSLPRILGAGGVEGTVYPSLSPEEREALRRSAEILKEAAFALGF

% decrease in activity at 1 mM [1]: 95%
SMILES: NC(=O)c1ccc[n+]([C@@H]2O[C@H](COP(=O)(O)OP(=O)(O)OC[C@H]3O[C@@H](n4cnc5c(N)ncnc54)[C@H](O)[C@@H]3O)[C@@H](O)[C@H]2O)c1 [NAD^+]

SMILES: CC(=O)C(=O)O [pyruvate]
NADH oxidation at 340 nm [2]: The enzyme was confirmed to show pyruvate reducing activity

coupled assay, NAD+ reduction at 340 nm [3]: phosphorylation of F6P catalyzed by PFK
SMILES: Nc1ncnc2c1ncn2[C@@H]1O[C@H](COP(=O)(O)OP(=O)(O)OP(=O)(O)O)[C@@H](O)[C@H]1O [ATP]

SMILES: O=P(O)(O)OC[C@H]1OC(O)(COP(=O)(O)O)[C@@H](O)[C@@H]1O (stereo partly shown) [fructose-1,6-bisphosphate]
coupled assay, NAD+ reduction at 340 nm [4]: fructose-6-phosphate, fructose-1,6-bisphosphate, dihydroxyacetone phosphate
